Patent US8324346B2, “Bioactive keratin peptides” (Keraplast Technologies, Ltd., priority 2002, dated 2012)

Tested on: Normal human adult dermal fibroblasts
Test: Cell Titer96 Cell Proliferation Assay: mitogenic effects of synthesized peptides on human fibroblasts in culture for 5 days
Format: cell-based
Details: normalized to baseline controls
Experimental: Normal human adult dermal fibroblasts were cultured in fibroblast growth medium (Clonetics™/BioWhittaker, San Diego, Calif., USA). Passage 5 cells were seeded into wells of 96 well plates at 5×10^3 cells/well. Test peptide solutions were prepared at approximately 1.5 mg/ml in sterile water. Small volumes of 0.1N NH4OH were added dropwise to peptide the peptide solutions to completely solubilize the peptides as recommended by the manufacturer (New England Peptide, Inc., Fitchburg, Miss., USA). The volume of NH4OH added to the solution was recorded and used to adjust beginning concentration. Solutions were serially diluted in fibroblast culture medium from 100-0.001 μg/ml, then added to the cells and cultured for 5 days. At day 3, test and control media were removed from each well by vacuum and replaced with fresh test or control solutions. Samples were evaluated in 4 replicate wells. Note in each plate, wells were selected at random to be used as baseline controls to account for any variation in cell seeding between plates. After 5 days, cell proliferation was assessed spectrophotometrically using the Cell Titer96® Cell Proliferation Assay (Promega Corp., Madison, Wis., USA). Absorbance values were normalized to baseline controls and expressed as percent increased (positive values) or decreased (negative values) proliferation.

AAPTV (Consensus peptide) [H2N-AAPTV-OH]
percent increased (positive values) or decreased (negative values) proliferation, concentration 0.001 ug/mL: 11.0%
percent increased (positive values) or decreased (negative values) proliferation, concentration 0.01 ug/mL: −0.2%
percent increased (positive values) or decreased (negative values) proliferation, concentration 0.1 ug/mL: 0.3%
percent increased (positive values) or decreased (negative values) proliferation, concentration 1 ug/mL: 2.8%
percent increased (positive values) or decreased (negative values) proliferation, concentration 10 ug/mL: −5.9%
percent increased (positive values) or decreased (negative values) proliferation, concentration 100 ug/mL: −5.9%

AAPTVD (Consensus peptide) [H2N-AAPTVD-OH]
percent increased (positive values) or decreased (negative values) proliferation, concentration 0.001 ug/mL: 11.6%
percent increased (positive values) or decreased (negative values) proliferation, concentration 0.01 ug/mL: 7.9%
percent increased (positive values) or decreased (negative values) proliferation, concentration 0.1 ug/mL: −1.1%
percent increased (positive values) or decreased (negative values) proliferation, concentration 1 ug/mL: 1.7%
percent increased (positive values) or decreased (negative values) proliferation, concentration 10 ug/mL: −2.0%
percent increased (positive values) or decreased (negative values) proliferation, concentration 100 ug/mL: 1.6%

APTVDLN (Consensus peptide) [H2N-APTVDLN-OH]
percent increased (positive values) or decreased (negative values) proliferation, concentration 0.001 ug/mL: 1.2%
percent increased (positive values) or decreased (negative values) proliferation, concentration 0.01 ug/mL: 3.9%
percent increased (positive values) or decreased (negative values) proliferation, concentration 0.1 ug/mL: 2.8%
percent increased (positive values) or decreased (negative values) proliferation, concentration 1 ug/mL: −6.0%
percent increased (positive values) or decreased (negative values) proliferation, concentration 10 ug/mL: 8.1%
percent increased (positive values) or decreased (negative values) proliferation, concentration 100 ug/mL: 6.7%

DAAPTV (Consensus peptide) [H2N-DAAPTV-OH]
percent increased (positive values) or decreased (negative values) proliferation, concentration 0.001 ug/mL: −3.0%
percent increased (positive values) or decreased (negative values) proliferation, concentration 0.01 ug/mL: 9.5%
percent increased (positive values) or decreased (negative values) proliferation, concentration 0.1 ug/mL: 7.5%
percent increased (positive values) or decreased (negative values) proliferation, concentration 1 ug/mL: 3.5%
percent increased (positive values) or decreased (negative values) proliferation, concentration 10 ug/mL: −6.1%
percent increased (positive values) or decreased (negative values) proliferation, concentration 100 ug/mL: −2.7%

DLNQ (Consensus peptide) [H2N-DLNQ-OH]
percent increased (positive values) or decreased (negative values) proliferation, concentration 0.001 ug/mL: 15.9%
percent increased (positive values) or decreased (negative values) proliferation, concentration 0.01 ug/mL: 8.9%
percent increased (positive values) or decreased (negative values) proliferation, concentration 0.1 ug/mL: 2.6%
percent increased (positive values) or decreased (negative values) proliferation, concentration 1 ug/mL: −0.8%
percent increased (positive values) or decreased (negative values) proliferation, concentration 10 ug/mL: −0.7%
percent increased (positive values) or decreased (negative values) proliferation, concentration 100 ug/mL: −3.6%

DLNRVL (Consensus peptide) [H2N-DLNRVL-OH]
percent increased (positive values) or decreased (negative values) proliferation, concentration 0.001 ug/mL: 14.4%
percent increased (positive values) or decreased (negative values) proliferation, concentration 0.01 ug/mL: 11.5%
percent increased (positive values) or decreased (negative values) proliferation, concentration 0.1 ug/mL: −0.4%
percent increased (positive values) or decreased (negative values) proliferation, concentration 1 ug/mL: −2.8%
percent increased (positive values) or decreased (negative values) proliferation, concentration 10 ug/mL: −3.5%
percent increased (positive values) or decreased (negative values) proliferation, concentration 100 ug/mL: −1.2%

DTAPTV (Consensus peptide) [H2N-DTAPTV-OH]
percent increased (positive values) or decreased (negative values) proliferation, concentration 0.001 ug/mL: 3.2%
percent increased (positive values) or decreased (negative values) proliferation, concentration 0.01 ug/mL: 2.5%
percent increased (positive values) or decreased (negative values) proliferation, concentration 0.1 ug/mL: 6.7%
percent increased (positive values) or decreased (negative values) proliferation, concentration 1 ug/mL: 2.9%
percent increased (positive values) or decreased (negative values) proliferation, concentration 10 ug/mL: 2.2%
percent increased (positive values) or decreased (negative values) proliferation, concentration 100 ug/mL: 7.6%

EVDAAPT (Consensus peptide) [H2N-EVDAAPT-OH]
percent increased (positive values) or decreased (negative values) proliferation, concentration 0.001 ug/mL: 6.5%
percent increased (positive values) or decreased (negative values) proliferation, concentration 0.01 ug/mL: 8.9%
percent increased (positive values) or decreased (negative values) proliferation, concentration 0.1 ug/mL: 5.4%
percent increased (positive values) or decreased (negative values) proliferation, concentration 1 ug/mL: 7.1%
percent increased (positive values) or decreased (negative values) proliferation, concentration 10 ug/mL: 16.5%
percent increased (positive values) or decreased (negative values) proliferation, concentration 100 ug/mL: 4.1%

LGDRL (Consensus peptide) [H2N-LGDRL-OH]
percent increased (positive values) or decreased (negative values) proliferation, concentration 0.001 ug/mL: 10.3%
percent increased (positive values) or decreased (negative values) proliferation, concentration 0.01 ug/mL: 0.0%
percent increased (positive values) or decreased (negative values) proliferation, concentration 0.1 ug/mL: 0.6%
percent increased (positive values) or decreased (negative values) proliferation, concentration 1 ug/mL: −4.8%
percent increased (positive values) or decreased (negative values) proliferation, concentration 10 ug/mL: −3.1%
percent increased (positive values) or decreased (negative values) proliferation, concentration 100 ug/mL: −3.8%

LNVEV (Consensus peptide) [H2N-LNVEV-OH]
percent increased (positive values) or decreased (negative values) proliferation, concentration 0.001 ug/mL: −1.0%
percent increased (positive values) or decreased (negative values) proliferation, concentration 0.01 ug/mL: 0.9%
percent increased (positive values) or decreased (negative values) proliferation, concentration 0.1 ug/mL: −10.8%
percent increased (positive values) or decreased (negative values) proliferation, concentration 1 ug/mL: −11.4%
percent increased (positive values) or decreased (negative values) proliferation, concentration 10 ug/mL: 15.9%
percent increased (positive values) or decreased (negative values) proliferation, concentration 100 ug/mL: 13.9%

RLNVEV (Consensus peptide) [H2N-RLNVEV-OH]
percent increased (positive values) or decreased (negative values) proliferation, concentration 0.001 ug/mL: −2.6%
percent increased (positive values) or decreased (negative values) proliferation, concentration 0.01 ug/mL: −6.0%
percent increased (positive values) or decreased (negative values) proliferation, concentration 0.1 ug/mL: −4.3%
percent increased (positive values) or decreased (negative values) proliferation, concentration 1 ug/mL: 1.9%
percent increased (positive values) or decreased (negative values) proliferation, concentration 10 ug/mL: 6.4%
percent increased (positive values) or decreased (negative values) proliferation, concentration 100 ug/mL: 10.6%

SPLGD (Consensus peptide) [H2N-SPLGD-OH]
percent increased (positive values) or decreased (negative values) proliferation, concentration 0.001 ug/mL: 11.8%
percent increased (positive values) or decreased (negative values) proliferation, concentration 0.01 ug/mL: 1.7%
percent increased (positive values) or decreased (negative values) proliferation, concentration 0.1 ug/mL: −4.2%
percent increased (positive values) or decreased (negative values) proliferation, concentration 1 ug/mL: 1.5%
percent increased (positive values) or decreased (negative values) proliferation, concentration 10 ug/mL: −1.2%
percent increased (positive values) or decreased (negative values) proliferation, concentration 100 ug/mL: −4.3%

TAPTV (Consensus peptide) [H2N-TAPTV-OH]
percent increased (positive values) or decreased (negative values) proliferation, concentration 0.001 ug/mL: 5.2%
percent increased (positive values) or decreased (negative values) proliferation, concentration 0.01 ug/mL: −1.2%
percent increased (positive values) or decreased (negative values) proliferation, concentration 0.1 ug/mL: 9.4%
percent increased (positive values) or decreased (negative values) proliferation, concentration 1 ug/mL: 8.2%
percent increased (positive values) or decreased (negative values) proliferation, concentration 10 ug/mL: −2.7%
percent increased (positive values) or decreased (negative values) proliferation, concentration 100 ug/mL: 0.7%

TAPTVD (Consensus peptide) [H2N-TAPTVD-OH]
percent increased (positive values) or decreased (negative values) proliferation, concentration 0.001 ug/mL: 0.3%
percent increased (positive values) or decreased (negative values) proliferation, concentration 0.01 ug/mL: −0.9%
percent increased (positive values) or decreased (negative values) proliferation, concentration 0.1 ug/mL: −0.5%
percent increased (positive values) or decreased (negative values) proliferation, concentration 1 ug/mL: 2.1%
percent increased (positive values) or decreased (negative values) proliferation, concentration 10 ug/mL: 4.0%
percent increased (positive values) or decreased (negative values) proliferation, concentration 100 ug/mL: 6.9%

TLRSP (Consensus peptide) [H2N-TLRSP-OH]
percent increased (positive values) or decreased (negative values) proliferation, concentration 0.001 ug/mL: 4.7%
percent increased (positive values) or decreased (negative values) proliferation, concentration 0.01 ug/mL: 1.9%
percent increased (positive values) or decreased (negative values) proliferation, concentration 0.1 ug/mL: 7.7%
percent increased (positive values) or decreased (negative values) proliferation, concentration 1 ug/mL: 6.6%
percent increased (positive values) or decreased (negative values) proliferation, concentration 10 ug/mL: 14.7%
percent increased (positive values) or decreased (negative values) proliferation, concentration 100 ug/mL: 18.8%

VDAAPT (Consensus peptide) [H2N-VDAAPT-OH]
percent increased (positive values) or decreased (negative values) proliferation, concentration 0.001 ug/mL: 1.6%
percent increased (positive values) or decreased (negative values) proliferation, concentration 0.01 ug/mL: 2.9%
percent increased (positive values) or decreased (negative values) proliferation, concentration 0.1 ug/mL: −3.6%
percent increased (positive values) or decreased (negative values) proliferation, concentration 1 ug/mL: 4.5%
percent increased (positive values) or decreased (negative values) proliferation, concentration 10 ug/mL: 6.2%
percent increased (positive values) or decreased (negative values) proliferation, concentration 100 ug/mL: 13.3%

VDTAPT (Consensus peptide) [H2N-VDTAPT-OH]
percent increased (positive values) or decreased (negative values) proliferation, concentration 0.001 ug/mL: 9.0%
percent increased (positive values) or decreased (negative values) proliferation, concentration 0.01 ug/mL: 4.2%
percent increased (positive values) or decreased (negative values) proliferation, concentration 0.1 ug/mL: 6.8%
percent increased (positive values) or decreased (negative values) proliferation, concentration 1 ug/mL: 2.5%
percent increased (positive values) or decreased (negative values) proliferation, concentration 10 ug/mL: −0.1%
percent increased (positive values) or decreased (negative values) proliferation, concentration 100 ug/mL: 4.4%

VDTAPTV (Consensus peptide) [H2N-VDTAPTV-OH]
percent increased (positive values) or decreased (negative values) proliferation, concentration 0.001 ug/mL: 10.4%
percent increased (positive values) or decreased (negative values) proliferation, concentration 0.01 ug/mL: 7.9%
percent increased (positive values) or decreased (negative values) proliferation, concentration 0.1 ug/mL: 1.2%
percent increased (positive values) or decreased (negative values) proliferation, concentration 1 ug/mL: 0.7%
percent increased (positive values) or decreased (negative values) proliferation, concentration 10 ug/mL: 5.5%
percent increased (positive values) or decreased (negative values) proliferation, concentration 100 ug/mL: −5.5%

VEVDAA (Consensus peptide) [H2N-VEVDAA-OH]
percent increased (positive values) or decreased (negative values) proliferation, concentration 0.001 ug/mL: 11.0%
percent increased (positive values) or decreased (negative values) proliferation, concentration 0.01 ug/mL: 2.3%
percent increased (positive values) or decreased (negative values) proliferation, concentration 0.1 ug/mL: −9.0%
percent increased (positive values) or decreased (negative values) proliferation, concentration 1 ug/mL: −4.7%
percent increased (positive values) or decreased (negative values) proliferation, concentration 10 ug/mL: −1.3%
percent increased (positive values) or decreased (negative values) proliferation, concentration 100 ug/mL: −9.5%
